Source: BindingDB's records for doi:10.1021/acs.jmedchem.3c01236 (University of Toronto Mississauga, 2023)

Biological target: Histone deacetylase 1 (Homo sapiens, UniProt Q13547)
Test: Inhibition of HDAC1 (unknown origin) using 6-carboxyfluorescein peptide as substrate preincubated with compound followed by substrate addition by electrophoretic mobility shift assay

Histone deacetylase 1, sequence (Q13547 whole entry): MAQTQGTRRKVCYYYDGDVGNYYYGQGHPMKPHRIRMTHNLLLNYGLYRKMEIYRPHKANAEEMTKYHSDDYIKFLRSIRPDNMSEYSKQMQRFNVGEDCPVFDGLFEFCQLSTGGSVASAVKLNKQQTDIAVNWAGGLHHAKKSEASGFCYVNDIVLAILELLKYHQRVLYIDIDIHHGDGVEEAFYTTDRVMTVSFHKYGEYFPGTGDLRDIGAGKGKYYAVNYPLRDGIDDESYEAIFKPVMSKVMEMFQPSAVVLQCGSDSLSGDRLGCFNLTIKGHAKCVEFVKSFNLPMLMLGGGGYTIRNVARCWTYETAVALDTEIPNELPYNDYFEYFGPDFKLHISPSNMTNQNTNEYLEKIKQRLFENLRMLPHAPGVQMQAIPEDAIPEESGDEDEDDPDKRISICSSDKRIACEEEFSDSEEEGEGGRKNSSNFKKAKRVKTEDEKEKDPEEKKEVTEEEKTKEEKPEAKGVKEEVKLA

IC50: 685 nM
SMILES: C=CC(=O)N1CCC(OC(=O)NCc2ccc(C(=O)Nc3ccccc3N)cc2)CC1
